Measured values from patent US9427456B2, “Peptide therapy for increasing platelet levels” (Biokine Therapeutics Ltd., priority 2009, dated 2016).
“Also recorded” adds a separate entry of the source.

Columns and labels:
[1] = test system: blood platelets; test: Blood platelet counts in healthy mice after s.c. injection; assay type: in vivo, C57BL/6 mice; conditions: for Platelets (×10^3): blood at day 5, s.c., 4F-benzoyl-TN14003 100 ug/mouse (5 mg/Kg) once a day for 5 days, TPO 0.5 ug/mouse 3 times once a day (days 3-5 in combination); for % increase (platelet counts): versus PBS control, day 5, same regimens as platelet counts
Description: Female C57BL/6 mice (7-8 weeks old) were purchased from Harlan Israel and maintained under specific pathogen-free conditions at the Hebrew University Animal Facility (Jerusalem, Israel).
(§1) 4F-benzoyl-TN14003 and Thrombopoietin were reconstituted in PBS at various concentrations. Mice were injected subcutaneously in a total volume of 200 μl. 4F-benzoyl-TN14003 (100 ug/mouse, 5 mg/Kg) was injected for 5 days, once a day and at day 5 blood was collected and tested for platelets counts and hematopoietic colonies were tested in the bone marrow. Thrombopoietin was injected 3 times once a day, at (0.5 ug/mouse), and blood was collected and tested for platelets counts and hematopoietic colonies were tested in the bone marrow at day 5. In another group 4F-benzoyl-TN14003 (100 ug/mouse) was injected for 5 days, once a day and at days 3, 4 and 5 mice were further injected with Thrombopoietin (namely 3 times once a day, at 0.5 ug/mouse). Blood was collected and tested for platelets counts and hematopoietic colonies were tested in the bone marrow at day 5. Control mice were injected with PBS at the appropriate volume and blood was collected and tested for platelets counts and hematopoietic colonies in the bone marrow at day 5.
In the experiments described in FIG. 2, mice were injected subcutaneously with 4F-benzoyl-TN14003 at a dose of 5 mg/kg, administered either as a once daily injection or divided into two doses administered b.i.d. Blood platelet levels were measured 1, 2 or 3 days later.
In FIG. 3, “Male control” and “Female control” indicate PBS-treated male and female mice, respectively; “Male+4FB-T140” and “Female+4FB-T140” indicate male or female mice treated with 4F-benzoyl-TN14003 (5 mg/kg)

[2] = test system: hematopoietic precursor cells in the bone marrow; test: Hematopoietic progenitor cells (HPCs) colony-forming cell assay, bone marrow of treated mice; assay type: in vivo, C57BL/6 mice; conditions: bone marrow at day 5; colonies scored after seven days of culture; same regimens as Table 2
Description: as §1
In order to evaluate the number of progenitor cells in the Bone marrow, a colony-forming cell assay was used for the production of hematopoietic colonies following treatments. […] Seven days later, typical colonies were visually scored by morphologic criteria using a light microscope.

[3] = test system: blood platelets; test: Chemotherapy (5FU)-induced thrombocytopenia model in mice; assay type: in vivo; conditions: for Levels of platelets in blood before and after 5FU: 5FU 150 mg/kg i.p. day 0, peptide 5 mg/Kg s.c. daily 5 days before and from day 1 after 5FU, G-CSF 5 μg/mouse daily from day 1, TPO 0.5 μg/mouse 3 days before 5FU, FIG. 4-6
Description: In the chemotherapy experiments 5-fluorouracil (5FU) at 150 mg/kg was dissolved in saline and injected intraperitoneally (on day 0). The mice were treated with 4F-benzoyl-TN14003 (5 mg/Kg) for 5 days or with TPO (0.5 μg/mouse) for 3 days before treatment with 5FU. 4F-benzoyl-TN14003 treated mice were further treated daily with 4F-benzoyl-TN14003 (5 mg/Kg) one day after 5FU administration and the treatment was continued until the end of the experiment. Blood samples were collected 1 hr following 4F-benzoyl-TN14003 administration or control (PBS) injection]; total blood counts were tested by American Medical Laboratories, Israel. In some experiments, G-CSF was s.c. injected daily, one day after 5FU administration until the end of the experiment, at final concentration of 5 μg/mouse in total volume of 0.2 ml.
The platelet modulating effects were then examined in a chemotherapy-induced thrombocytopenia model in mice. In these experiments, 5-fluorouracil (“5FU”) at 150 mg/kg dissolved in saline was injected intraperitoneally to all mice (on day 0). Some of the mice were further treated with 4F-benzoyl-TN14003 (5 mg/Kg, once daily S.C. injections) for 5 days before treatment with 5FU, and Mice were further treated daily with 4F-benzoyl-TN14003 (5 mg/Kg) one day after 5FU and the treatment was continued until the end of the experiment. Blood samples were collected 1 hr following administration of 4F-benzoyl-TN14003 or control (PBS) injection. […] In FIG. 4, diamonds represent control (PBS treated) mice; open squares represent 4F-benzoyl-TN14003 treated mice.
Next, the effect of the peptide on mice treated with 5FU with or without G-CSF was examined. G-CSF administration (as daily S.C. injections, 5 μg/mouse) was initiated one day after 5FU treatment and continued until the end of the experiment. 5FU and 4F-benzoyl-TN14003 administration and blood sample collection were as specified above for FIG. 4. […] In FIG. 5, diamonds represent control (PBS treated) mice; open squares represent 4F-benzoyl-TN14003 treated mice; triangles represent G-CSF treated mice; and crosses represent mice treated with G-CSF and 4F-benzoyl-TN14003.
The activity of the peptide in the chemotherapy-induced thrombocytopenia model was then compared to that of TPO. In the TPO group, mice were treated with a single dose of TPO (0.5 μg/mouse) for 3 days before treatment with 5FU. 5FU and 4F-benzoyl-TN14003 administration and blood sample collection were as specified above for FIG. 4. […] In FIG. 6, diamonds represent control (PBS treated) mice; open squares represent 4F-benzoyl-TN14003 treated mice; and triangles represent TPO treated mice.

[4] = test system: blood platelets; test: Clinical study: single dose in Multiple Myeloma patients receiving Cyclophosphamide and G-CSF, blood platelet levels; assay type: in vivo, human
Description: A Phase […], non-Randomized, Open Label, Single Dose, Dose-Escalation, Safety Study of 4F-benzoyl-TN14003 was conducted in patients with Multiple Myeloma (MM) receiving G-CSF for inducing mobilization of progenitor stem cells from the Bone Marrow to the peripheral blood.
All eligible patients received, in an ambulatory setting, as part of their planned therapy: Cyclophosphamide—(the generic name for Cytoxan, Neosar), 4 gr/m^2 according to the accepted MM practice. G-CSF (neupogen) was initiated 5 days later and continued until the end of stem cell collection, administered SC at 5 μg/kg per day every day after 18:00. Monitoring the WBC and platelets was done after 7 and 10 days, and until stem cell collection. Stem cell collection was performed according to the protocol of WBC over 1,000 cells.
4F-benzoyl-TN14003 was injected after 10 days, as a single dose of 30, 100, 300 or 900 μg/Kg. The follow-up post injection included counting WBC and platelets levels at points of 30 min, 1 hr, 2 hr, 4 hr, 8 hr, 24 hr.
MM patients undergoing chemotherapy with Cyclophosphamide, received G-CSF according to a clinical protocol for inducing HPC mobilization for subsequent harvesting and transplantation. 10 days after Cyclophosphamide and G-CSF treatment, the patients received 4F-benzoyl-TN14003 injected at a dose of 0.9 mg/kg. […]

| Molecule | Blood platelet levels after a single injection ([1]; 5 mg/kg s.c., once daily or divided b.i.d., measured 1, 2 or 3 days later, FIG. 2) | Blood platelet levels in male and female mice ([1]; 5 mg/kg, measured 3 days post administration, FIG. 3) | Platelets (×10^3) [1] | Effect on TPO activity in enhancing platelets levels ([1]; combination with TPO, mice, FIG. 1) | Potency relative to TPO in stimulating production of platelets ([1]; healthy C57B1 mice) | % increase (platelet counts) [1] [%] | Colonies (HPC counts, colony forming cells in bone marrow) [2] | Levels of platelets in blood before and after 5FU [3] | Platelet levels after 10 days of administration, compared with TPO and control ([3]; 5FU model, FIG. 6) | Potency relative to TPO in enhancing platelet levels and reducing chemotherapy-induced thrombocytopenia ([3]; thrombocytopenia induced by chemotherapy) | Time after administration at which platelet increase could be detected ([4]; 0.9 mg/kg single injection, MM patients) [min] | Number of platelets in the blood after single injection ([4]; 0.9 mg/kg, 10 days after Cyclophosphamide and G-CSF, still observed after 1, 2, 4 or 8 hours, FIG. 7) |
| --- | --- | --- | --- | --- | --- | --- | --- | --- | --- | --- | --- | --- |
| 4F-benzoyl-Arg-Arg-Nal-Cys-Tyr-Cit-Lys-DLys-Pro-Tyr-Arg-Cit-Cys-Arg-NH2 [4F-benzoyl-TN14003] | significant elevation in blood platelet levels | enhanced blood platelet levels | 1551 ×10^3 | potentiates the activity of TPO in enhancing platelets levels in vivo | as potent as TPO | 32 | 148.2 | enhanced the levels of platelets in blood before and after treatment with 5FU; also recorded: elevated blood platelet levels before or after 5FU administration | higher in 4F-benzoyl-TN14003-treated mice than in TPO-treated mice or control mice | more potent than TPO | 30 | immediate increase in the number of platelets in the blood |
| Thrombopoietin [TPO] | – | – | 1556 ×10^3 | – | – | 32 | 150.2 | elevated blood platelet levels before or after 5FU administration | – | – | – | – |
| granulocyte-colony stimulating factor (protein, UniProt P09919 31-207, looked up, granulocyte-colony stimulating factor, s.c. injected daily at 5 μg/mouse) Granulocyte …: TPLGPASSLPQSFLLKCLEQVRKIQGDGAALQEKLVSECATYKLCHPEELVLLGHSLGIPWAPLSSCPSQALQLAGCLSQLHSGLFLYQGLLQALEGISPELGPTLDTLQLDVADFATTIWQQMEELGMAPALQPTQGAMPAFASAFQRRAGGVLVASHLQSFLEVSYRVLRHLAQP | – | – | – | – | – | – | – | no effect on blood platelet levels; also recorded: had no effect on platelet levels | – | – | – | – |
